Results: US20240262832A1, “SMALL MOLECULE MODULATORS OF GLUCOCEREBROSIDASE ACTIVITY AND USES THEREOF” (Vanqua Bio, Inc., priority 2021, published 2024)

target: T1, GCase (Homo sapiens, UniProt P04062); experiment: activation of GCase in a live cell PFB assay in HELA cells; format: cell-based
T1 construct: endogenous in cells; host or cells: HeLa cells
T1 sequence (P04062 40-536): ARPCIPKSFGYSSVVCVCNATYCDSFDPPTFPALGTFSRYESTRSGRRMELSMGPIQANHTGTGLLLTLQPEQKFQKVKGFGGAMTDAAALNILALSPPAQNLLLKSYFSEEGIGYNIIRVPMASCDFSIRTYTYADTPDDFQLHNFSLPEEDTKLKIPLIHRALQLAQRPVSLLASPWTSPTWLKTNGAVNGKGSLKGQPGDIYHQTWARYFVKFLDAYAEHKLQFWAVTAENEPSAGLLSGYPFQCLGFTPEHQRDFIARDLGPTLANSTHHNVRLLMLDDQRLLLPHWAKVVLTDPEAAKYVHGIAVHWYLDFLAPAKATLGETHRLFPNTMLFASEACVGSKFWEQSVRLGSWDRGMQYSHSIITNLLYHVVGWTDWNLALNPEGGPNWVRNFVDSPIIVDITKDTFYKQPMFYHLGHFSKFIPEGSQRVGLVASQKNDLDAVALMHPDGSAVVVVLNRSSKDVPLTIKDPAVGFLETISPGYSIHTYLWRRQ

Row | EC50 [µM] | SMILES
1 | < 10 | COCCn1ncc2ncc(N3C[C@@H](C)C[C@H](COc4cccnc4C(F)(F)F)C3)nc21 [Compound 230b, 1-(2-Methoxyethyl)-6-((3S,5S)-3-methyl-5-(((2-(trifluoromethyl)pyridin-3-yl)oxy)methyl)piperidin-1-yl)-1H-pyrazolo[3,4-b]pyrazine]
2 | < 10 | CC(=O)N1CCC(c2cncc(N3CCCC(COc4ccccc4C(F)(F)F)C3)n2)C(C)C1 (stereo not drawn) [Compound 112, 1-(3-methyl-4-(6-(3-((2-(trifluoromethyl)phenoxy)methyl)piperidin-1-yl)pyrazin-2-yl)piperidin-1-yl)ethan-1-one]
3 | > 100 | CC(=O)N1CCC(c2cc3nc(C(=O)N4C[C@@H]5[C@@H](COc6cccc(C(F)(F)F)n6)[C@@H]5C4)cnc3n2C)CC1 [Compound 225, 1-(4-(5-Methyl-2-((1R,5S,6r)-6-(((6-(trifluoromethyl)pyridin-2-yl)oxy)methyl)-3-azabicyclo[3.1.0]hexane-3-carbonyl)-5H-pyrrolo[2,3-b]pyrazin-6-yl)piperidin-1-yl)ethan-1-one]
4 | 10 to 50 | COc1ccc(OCC2CCN(c3ncnc4cc[nH]c34)CC2)cc1 [Compound 427]
5 | 10 to 50 | COc1ccc(OCC2CCN(C(=O)c3cccc(NC(=O)C(C)C)c3)CC2)cc1 [Compound 446]
6 | < 10 | C[C@H]1CC[C@@H](COc2cccnc2C(F)(F)F)CN1c1cnc2cnn(CC(F)F)c2n1 [Compound 77, 1-(2,2-Difluoroethyl)-6-((2S,5R)-2-methyl-5-(((2-(trifluoromethyl)pyridin-3-yl)oxy)methyl)piperidin-1-yl)-1H-pyrazolo[3,4-b]pyrazine]
7 | 10 to 50 | Cn1c(-c2ccc(F)cc2)nc2ncc(C(=O)N3C[C@@H]4[C@@H](COc5cccnc5C(F)(F)F)[C@@H]4C3)nc21 [Compound 224]
8 | 50 to 100 | O=C(c1ccn2c1CSCC2)N1CCCC(COc2ccccc2)C1 (stereo not drawn) [Compound 220]
9 | < 10 | FC(F)Cn1ncc2ncc(N3C[C@@H]4[C@@H](COc5cccnc5C(F)(F)F)[C@@H]4C3)nc21 [Compound 1, (1R,5S,6S)-3-[1-(2,2-difluoroethyl)-1H-pyrazolo[3,4-b]pyrazin-6-yl]-6-({[2-(trifluoromethyl)pyridin-3-yl]oxy}methyl)-3-azabicyclo[3.1.0]hexane]
10 | 10 to 50 | FC(F)Cn1ncc2ncc(N3C[C@@H]4[C@@H](COc5ncccc5C(F)(F)F)[C@@H]4C3)nc21 [Compound 89, (1R,5S,6S)-3-[1-(2,2-difluoroethyl)-1H-pyrazolo[3,4-b]pyrazin-6-yl]-6-({[3-(trifluoromethyl)pyridin-2-yl]oxy}methyl)-3-azabicyclo[3.1.0]hexane]
11 | 10 to 50 | O=C(CC12CCC(CC1)C2)N1CCCC(COc2ccccc2)C1 (stereo not drawn) [Compound 213]
12 | 10 to 50 | Cc1nc(-n2cccc2)sc1C(=O)N1CCCC(COc2ccccc2)C1 (stereo not drawn) [Compound 163]
13 | 10 to 50 | COc1ccc(OCC2CCN(C(=O)c3cc(C)oc3C)CC2)cc1 [Compound 459]
14 | 10 to 50 | COc1cccc(C(C(=O)N2CCCC(COc3ccccc3)C2)C(C)C)c1 (stereo not drawn) [Compound 141]
15 | 10 to 50 | O=C(c1ccc2cc[nH]c2c1)N1CCC(Oc2cccc(C(F)(F)F)n2)CC1 [Compound 327, (1H-Indol-6-yl)(4-((6-(trifluoromethyl)pyridin-2-yl)oxy)piperidin-1-yl)methanone]
16 | 10 to 50 | Cc1cccc(-c2ccccc2C(=O)N2CCCC(COc3ccccc3)C2)c1 (stereo not drawn) [Compound 187]
17 | 10 to 50 | Cn1c(-c2ccc(F)cc2)nc2ncc(C(=O)N3CCCC(COc4cccnc4C(F)(F)F)C3)nc21 (stereo not drawn) [Compound 96, (2-(4-Fluorophenyl)-1-methyl-1H-imidazo[4,5-b]pyrazin-6-yl)(3-(((2-(trifluoromethyl)pyridin-3-yl)oxy)methyl)piperidin-1-yl)methanone]
18 | 50 to 100 | CC(=O)c1ccc(OCC(=O)N2CCC(OCc3ccccc3)CC2)cc1 [Compound 478]
19 | 10 to 50 | FC(F)Cn1ncc2ncc(N3CCC(COc4ccc(C(F)(F)F)cn4)CC3)nc21 [Compound 317, 1-(2,2-Difluoroethyl)-6-(4-(((5-(trifluoromethyl)pyridin-2-yl)oxy)methyl)piperidin-1-yl)-1H-pyrazolo[3,4-b]pyrazine]
20 | 10 to 50 | CCc1ncc(C(=O)N2CCC(COc3ccc4c(c3)CCC4)CC2)cn1 [Compound 426]

Row | EC50 [µM] | SMILES
21 | 10 to 50 | CCn1ncc2ncc(N3CCCC(COc4ccccc4C(F)(F)F)C3)nc21 (stereo not drawn) [Compound 16, 1-{1-ethylpyrazolo[3,4-b]pyrazin-6-yl}-3-[2-(trifluoromethyl)phenoxymethyl]piperidine]
22 | 10 to 50 | O=C(N1CCCC(COc2ccccc2)C1)C1(c2nnc(-c3ccccc3)o2)CCOCC1 (stereo not drawn) [Compound 46, (3-(Phenoxymethyl)piperidin-1-yl)(4-(5-phenyl-1,3,4-oxadiazol-2-yl)tetrahydro-2H-pyran-4-yl)methanone]
23 | 10 to 50 | COc1ccc(OCC2CCN(C(=O)c3ccc(C#CC(C)(C)O)o3)CC2)cc1 [Compound 433]
24 | 10 to 50 | FC(F)Cn1ncc2ncc(N3CC(COc4cccnc4C(F)(F)F)CC(F)(F)C3)nc21 (stereo not drawn) [Compound 21, 3-({1-[1-(2,2-difluoroethyl)-1H-pyrazolo[3,4-b]pyrazin-6-yl]-5,5-difluoropiperidin-3-yl}methoxy)-2-(trifluoromethyl)pyridine]
25 | 50 to 100 | CCc1nc(CNC(=O)N2CCC(COc3ccc(OC)cc3)CC2)no1 [Compound 460]
26 | > 100 | NCCn1cc(C(=O)N2CCC(COc3ccc4c(c3)CCC4)CC2)nn1 [Compound 440]
27 | 10 to 50 | O=C(Cc1csc(-c2ccccc2)n1)N1CCC(COCc2ccccc2)CC1 [Compound 335, 1-{4-[(Benzyloxy)methyl]piperidin-1-yl}-2-(2-phenyl-1,3-thiazol-4-yl)ethan-1-one]
28 | 10 to 50 | FC(F)(F)c1ncccc1OC[C@@H]1[C@H]2CN(c3cncc(-c4nncs4)n3)C[C@@H]12 [Compound 40, (1R,5S,6S)-3-[6-(1,3,4-Thiadiazol-2-yl)pyrazin-2-yl]-6-({[2-(trifluoromethyl)pyridin-3-yl]oxy}methyl)-3-azabicyclo[3.1.0]hexane]
29 | 50 to 100 | CCn1cc(-c2cccc(C(=O)N3CCC(OCc4ccccc4)CC3)c2)cn1 [Compound 476]
30 | 50 to 100 | COc1ccc(OCC2CCN(c3nncc(C)c3C)CC2)cc1 [Compound 430]
31 | > 100 | COc1cccn(CC(=O)N2CCC(OCc3ccccc3)CC2)c1=O [Compound 447]
32 | < 10 | Cc1ccccc1OCC1CCCN(C(=O)c2cnn3c(-c4ccccc4C#N)ccc(F)c23)C1 (stereo not drawn) [Compound 296, 2-(4-Fluoro-3-(3-((o-tolyloxy)methyl)piperidine-1-carbonyl)pyrazolo[1,5-a]pyridin-7-yl)benzonitrile]
33 | 10 to 50 | FC(F)Cn1ncc2ncc(N3C[C@@H]4[C@@H](COc5ccc(C(F)(F)F)cn5)[C@@H]4C3)nc21 [Compound 61, (1R,5S,6S)-3-[1-(2,2-difluoroethyl)-1H-pyrazolo[3,4-b]pyrazin-6-yl]-6-({[5-(trifluoromethyl)pyridin-2-yl]oxy}methyl)-3-azabicyclo[3.1.0]hexane]
34 | 10 to 50 | C[C@@H]1C[C@H](CN(C)C23CC(C2)C3)CN(c2cnc3cnn(CC(F)F)c3n2)C1 [Compound 297]
35 | > 100 | O=C(Cc1ccnn(-c2ccccc2)c1=O)N1CCCC(COc2ccccc2)C1 (stereo not drawn) [Compound 44, 4-(2-Oxo-2-(3-(phenoxymethyl)piperidin-1-yl)ethyl)-2-phenylpyridazin-3(2H)-one]
36 | > 100 | O=C(c1ccc(Cn2cccn2)o1)N1CCC(OCc2ccccc2)CC1 [Compound 449]
37 | < 10 | C[C@@H]1C[C@H](COc2cccnc2C(F)(F)F)CN(c2cnc3cnn(CC(F)F)c3n2)C1 [Compound 94, 1-(2,2-Difluoroethyl)-6-((3R,5S)-3-methyl-5-(((2-(trifluoromethyl)pyridin-3-yl)oxy)methyl)piperidin-1-yl)-1H-pyrazolo[3,4-b]pyrazine]
38 | > 100 | COc1ccc(OCC2CCN(C(=O)Cc3ccccn3)CC2)cc1 [Compound 466]
39 | 10 to 50 | Cc1ccccc1CCC(=O)N1CCCC(COc2ccccc2)C1 (stereo not drawn) [Compound 129]
